Laboratory results taken from patent US20180339963A1, “ANTICONVULSANT CARBAMATE DERIVATIVES” (Yissum Research Development Company of the Hebrew …, priority 2017, published 2018).
pKi: −log10 of the molar value. Like-named read-outs stand apart in the source and are kept apart here.

Key:
hCA I = molecular target: T1, hCA I (Homo sapiens, UniProt P00915); test: Stopped flow CO2 hydrase assay, hCA I; assay type: biochemical; conditions: mean from 3 assays, read-out: K1, hCAI
T1 construct: made in house
Procedure: (§1) An Applied Photophysics stopped-flow instrument has been used for assaying the CA catalysed CO2 hydration activity. Phenol red (at a concentration of 0.2 mM) has been used as indicator, working at the absorbance maximum of 557 nm, with 20 mM Hepes (pH 7.5) as buffer, and 20 mM Na2SO4 (for maintaining constant the ionic strength), following the initial rates of the CA-catalyzed CO2 hydration reaction for a period of 10-100 s. The CO2 concentrations ranged from 1.7 to 17 mM for the determination of the kinetic parameters and inhibition constants. […] The uncatalyzed rates were determined in the same manner and subtracted from the total observed rates. Stock solutions of inhibitor (0.1 mM) were prepared in distilled-deionized water and dilutions up to 0.01 nM were done thereafter with the assay buffer. […] The inhibition constants were obtained by non-linear least-squares methods using PRISM 3 and the Cheng-Prusoff equation, as reported earlier and represent the mean from at least three different determinations. All CA isofoms were recombinant ones obtained in-house.

hCA IV = molecular target: T2, hCA IV (Homo sapiens, UniProt P22748); test: Stopped flow CO2 hydrase assay, hCA IV; assay type: biochemical; conditions: mean from 3 assays; for pKi: read-out: K1, hCA IV
T2 construct: made in house
Procedure: as §1

6 Hz psychomotor seizure = 6 Hz psychomotor seizure test in mice; conditions: Mus musculus, ip, read-out: 6 Hz, number of mice protected/number of mice tested
hCA VII = molecular target: T3, hCA VII (Homo sapiens, UniProt P43166); test: Stopped flow CO2 hydrase assay, hCA VII; assay type: biochemical; conditions: mean from 3 assays, read-out: K1, hCA VII
T3 construct: made in house
Procedure: as §1

hCA II = molecular target: T4, hCA II (Homo sapiens, UniProt P00918); test: Stopped flow CO2 hydrase assay, hCA II; assay type: biochemical; conditions: mean from 3 assays, read-out: K1, hCA II
T4 construct: made in house
Procedure: as §1

mice = test: Neurotoxicity (minimal motor impairment, rotarod) in mice; conditions: mice i.p.
[1] = tested on: maximal electroshock seizure (MES); test: Maximal electroshock seizure (MES) test in mice; conditions: Mus musculus, ip; for responders at 30 mg/kg / responders at 100 mg/kg / responders at 300 mg/kg: read-out: MES, number of mice protected/number of mice tested
[2] = tested on: maximal electroshock seizure (MES); test: Maximal electroshock seizure (MES) test in rats; conditions: Rattus norvegicus, po, read-out: MES-ED50, rats, p.o.

T3 sequence (P43166 whole entry): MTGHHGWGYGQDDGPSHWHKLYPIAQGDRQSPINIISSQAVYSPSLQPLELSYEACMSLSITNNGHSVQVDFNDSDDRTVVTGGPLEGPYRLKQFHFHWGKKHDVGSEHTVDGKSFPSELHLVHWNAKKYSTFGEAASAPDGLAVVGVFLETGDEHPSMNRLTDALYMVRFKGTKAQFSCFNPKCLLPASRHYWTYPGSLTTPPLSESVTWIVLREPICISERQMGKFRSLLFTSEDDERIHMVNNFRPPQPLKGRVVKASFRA
T1 sequence (P00915 whole entry): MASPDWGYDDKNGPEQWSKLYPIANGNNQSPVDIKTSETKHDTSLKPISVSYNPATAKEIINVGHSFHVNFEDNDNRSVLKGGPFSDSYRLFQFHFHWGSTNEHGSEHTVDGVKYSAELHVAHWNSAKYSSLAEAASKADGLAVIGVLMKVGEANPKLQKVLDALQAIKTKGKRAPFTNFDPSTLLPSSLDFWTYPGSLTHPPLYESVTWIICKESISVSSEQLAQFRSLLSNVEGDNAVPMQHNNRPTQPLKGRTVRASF
T2 sequence (P22748 19-284): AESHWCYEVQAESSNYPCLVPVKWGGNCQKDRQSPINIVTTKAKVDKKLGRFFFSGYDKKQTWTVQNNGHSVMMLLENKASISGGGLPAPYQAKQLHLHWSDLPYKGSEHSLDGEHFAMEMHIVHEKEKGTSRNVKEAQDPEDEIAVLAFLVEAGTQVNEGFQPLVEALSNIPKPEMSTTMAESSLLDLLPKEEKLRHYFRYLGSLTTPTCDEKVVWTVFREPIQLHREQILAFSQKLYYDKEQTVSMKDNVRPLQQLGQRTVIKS

Row | pKi (hCA I) | pKi (hCA IV) | pKi (hCA VII) | pKi (hCA II) | melting point [°C] | SMILES | responders at 30 mg/kg (6 Hz psychomotor seizure; 0.5 h) [%] | responders at 100 mg/kg (6 Hz psychomotor seizure; 0.5 h) [%] | responders at 300 mg/kg (6 Hz psychomotor seizure; 0.5 h) [%] | responders at 30 mg/kg (6 Hz psychomotor seizure; 2 h) [%] | responders at 100 mg/kg (6 Hz psychomotor seizure; 2 h) [%] | responders at 300 mg/kg (6 Hz psychomotor seizure; 2 h) [%] | Tox (motor impairment or sedation), number of animals affected/number of animals tested (mice; 30 mg/kg, 0.5 h) | Tox (motor impairment or sedation), number of animals affected/number of animals tested (mice; 30 mg/kg, 2.0 h) | Tox (motor impairment or sedation), number of animals affected/number of animals tested (mice; 100 mg/kg, 0.5 h) | Tox (motor impairment or sedation), number of animals affected/number of animals tested (mice; 100 mg/kg, 2.0 h) | Tox (motor impairment or sedation), number of animals affected/number of animals tested (mice; 300 mg/kg, 0.5 h) | Tox (motor impairment or sedation), number of animals affected/number of animals tested (mice; 300 mg/kg, 2.0 h) | responders at 30 mg/kg ([1]; 0.5 h) [%] | responders at 100 mg/kg ([1]; 0.5 h) [%] | responders at 300 mg/kg ([1]; 0.5 h) [%] | further results
1 | 7.23 | 5.74 | 7.35 | 8.35 | 170 to 173 | CC(C)(C)CCOC(=O)Nc1ccc(S(N)(=O)=O)cc1 [Compound 4, 3,3-dimethylbutyl (4-sulfamoylphenyl)carbamate] | 0 | 0 | 0 | 0 | 0 | 0 | 0/8 | 0/8 | 0/8 | 0/8 | 0/8 | 0/8 | 0 | 0 | 25 | responders at 30 mg/kg ([1]; 2 h): 0%; responders at 100 mg/kg ([1]; 2 h): 0%; responders at 300 mg/kg ([1]; 2 h): 25%
2 | 6.77 | 5.77 | 7.28 | 8.28 | 162 to 165 | CCC(CC)COC(=O)Nc1ccc(S(N)(=O)=O)cc1 [Compound 6, 2-ethylbutyl (4-sulfamoylphenyl)carbamate] | 0 | 25 | 25 | 0 | 0 | 25 | 0/8 | 0/8 | 0/8 | 0/8 | 0/8 | 0/8 | 0 | 0 | 0 | responders at 30 mg/kg ([1]; 2 h): 0%; responders at 100 mg/kg ([1]; 2 h): 0%; responders at 300 mg/kg ([1]; 2 h): 0%
3 | 7.08 | 5.56 | 6.15 | 8.30 | 199 to 201 | CC(COC(=O)Nc1ccc(S(N)(=O)=O)cc1)CC(C)(C)C (stereo not shown) [Compound 7, 2,4,4-trimethylpentyl (4-sulfamoylphenyl)carbamate] | 25 | 25 | 100 | 0 | 50 | 75 | 0/8 | 0/8 | 0/8 | 0/8 | 0/8 | 0/8 | 0 | 0 | 0 | responders at 30 mg/kg ([1]; 2 h): 0%; responders at 100 mg/kg ([1]; 2 h): 25%; responders at 300 mg/kg ([1]; 2 h): 50%
4 | 7.68 | 6.34 | 7.45 | 8.43 | 193 to 194 | CC(C)C(OC(=O)Nc1ccc(S(N)(=O)=O)cc1)C(C)C [Compound 8, 2,4-dimethylpentan-3-yl (4-sulfamoylphenyl)carbamate] | 0 | 0 | 50 | 0 | 0 | 25 | 0/8 | 0/8 | 0/8 | 0/8 | 1/8 | 0/8 | 0 | 0 | 25 | K1, hCA IV (hCA IV): medium potency inhibitors; responders at 30 mg/kg ([1]; 2 h): 50%; responders at 100 mg/kg ([1]; 2 h): 100%; responders at 300 mg/kg ([1]; 2 h): 100%

The next lines start with the compound.

Row | SMILES | pKi (hCA I) | pKi (hCA IV) | pKi (hCA VII) | pKi (hCA II) | melting point [°C] | responders at 30 mg/kg (6 Hz psychomotor seizure; 0.5 h) [%] | responders at 100 mg/kg (6 Hz psychomotor seizure; 0.5 h) [%] | responders at 300 mg/kg (6 Hz psychomotor seizure; 0.5 h) [%] | responders at 30 mg/kg (6 Hz psychomotor seizure; 2 h) [%] | responders at 100 mg/kg (6 Hz psychomotor seizure; 2 h) [%] | responders at 300 mg/kg (6 Hz psychomotor seizure; 2 h) [%] | Tox (motor impairment or sedation), number of animals affected/number of animals tested (mice; 30 mg/kg, 0.5 h) | Tox (motor impairment or sedation), number of animals affected/number of animals tested (mice; 30 mg/kg, 2.0 h) | Tox (motor impairment or sedation), number of animals affected/number of animals tested (mice; 100 mg/kg, 0.5 h) | Tox (motor impairment or sedation), number of animals affected/number of animals tested (mice; 100 mg/kg, 2.0 h) | Tox (motor impairment or sedation), number of animals affected/number of animals tested (mice; 300 mg/kg, 0.5 h) | Tox (motor impairment or sedation), number of animals affected/number of animals tested (mice; 300 mg/kg, 2.0 h) | responders at 30 mg/kg ([1]; 0.5 h) [%] | responders at 100 mg/kg ([1]; 0.5 h) [%] | responders at 300 mg/kg ([1]; 0.5 h) [%] | further results
5 | CCCCC(CC)COC(=O)Nc1ccc(S(N)(=O)=O)cc1 (stereo not shown) [Compound 2, 2-ethylhexyl (4-sulfamoylphenyl)carbamate] | 6.38 | < 5.00 | < 5.00 | 8.06 | 192 to 195 | 0 | 75 | 50 | 0 | 0 | 25 | 0/8 | 0/8 | 0/8 | 0/8 | 0/8 | 0/8 | 0 | 25 | 25 | responders at 30 mg/kg ([1]; 2 h): 0%; responders at 100 mg/kg ([1]; 2 h): 0%; responders at 300 mg/kg ([1]; 2 h): 25%
6 | CCCC(CCC)COC(=O)Nc1ccc(S(N)(=O)=O)cc1 [Compound 3, 2-propylpentyl (4-sulfamoylphenyl)carbamate] | 6.31 | < 5.00 | < 5.00 | 7.71 | 176 to 177 | 0 | 0 | 25 | 0 | 0 | 0 | 0/8 | 0/8 | 0/8 | 0/8 | 0/8 | 0/8 | 0 | 0 | 0 | responders at 30 mg/kg ([1]; 2 h): 0%; responders at 100 mg/kg ([1]; 2 h): 0%; responders at 300 mg/kg ([1]; 2 h): 0%
7 | NS(=O)(=O)c1ccc(NC(=O)OCCc2ccccc2)cc1 [Compound 5, phenethyl (4-sulfamoylphenyl)carbamate] | 8.23 | 6.52 | 7.61 | 9.22 | 212 to 213 | 0 | 0 | 0 | 0 | 0 | 0 | 0/8 | 0/8 | 0/8 | 0/8 | 0/8 | 0/8 | 0 | 0 | 0 | K1, hCA IV (hCA IV): medium potency inhibitors; responders at 30 mg/kg ([1]; 2 h): 25%; responders at 100 mg/kg ([1]; 2 h): 25%; responders at 300 mg/kg ([1]; 2 h): 50%
8 | CCC(C)OC(=O)Nc1ccc(S(N)(=O)=O)cc1 (stereo not shown) [Compound 11, sec-butyl(4-sulfamoylphenyl)carbamate] | – | – | – | – | 190 to 191 | – | – | – | – | – | – | – | – | – | – | – | – | – | – | – | ED50 [2]: 25 mg/kg; ED50 ([1]; read-out: MES-ED50, mice, i.p.): 75 mg/kg
